Measurements reported in US7767659B2, “Synthesis of naturally occurring ecteinascidins and related compounds” (Pharma Mar, S.A., priority 2002, dated 2010).
Where two headings read alike, the source gives them in different places.

How the values were obtained:
LoVo = test: cells; settings: Homo sapiens, LoVo, 48 h
Summary of the method: (§1)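 Colorimetric SRB read (490 nm) on triplicate wells after 48 h at 37 °C, 5% CO2. Dose range 10 to 10^−8 μg/ml; 5×10^3 cells/well pre-attached 18 h.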

HT-29 = test: cells; settings: Homo sapiens, HT-29, 48 h
Summary of the method: as §1

A-549 = test: cells; settings: Homo sapiens, A549, 48 h
Summary of the method: as §1

K-562 = test: Inhibition of cells growth by colorimetric assay (SRB); settings: Homo sapiens, K562, 48 h
Summary of the method: as §1

IGROV-1 = test: as above; settings: Homo sapiens, IGROV-1, 48 h
Summary of the method: as §1

IGROV-ET = test: as above; settings: Homo sapiens, 48 h
Summary of the method: as §1

SK-BR-3 = test: as above; settings: Homo sapiens, SK-BR-3, 48 h
Summary of the method: as §1

LoVo-Dox = test: as above; settings: Homo sapiens, 48 h
Summary of the method: as §1

HeLa = test: as above; settings: Homo sapiens, HeLa, 48 h
Summary of the method: as §1

SK-MEL-28 = test: as above; settings: Homo sapiens, SK-MEL-28, 48 h
Summary of the method: as §1

HeLa-APL = test: as above; settings: Homo sapiens, 48 h
Summary of the method: as §1

PANC-1 = test: as above; settings: Homo sapiens, PANC-1, 48 h
Summary of the method: as §1

LNCaP = test: as above; settings: Homo sapiens, LNCaP, 48 h
Summary of the method: as §1

DU-145 = test: as above; settings: Homo sapiens, DU-145, 48 h
Summary of the method: as §1

## COc1c(C)cc2c(c1O)[C@H]1N[C@@H](C2)[C@H](C#N)N2C1[C@@H]1SCC(NC(=O)C(F)(F)F)C(=O)OC[C@H]2c2c3c(c(C)c(OC(C)=O)c21)OCO3 (stereo partly drawn) [compound 31]
LoVo; read-out: GI50 LOVO
  GI50: 0.688 nM
LoVo; read-out: LC50 LOVO
  CC50: 1820 nM
LoVo; read-out: TGI LOVO
  IC (TGI): 3.49 nM
HT-29; read-out: GI50 HT29
  GI50: 1.97 nM
HT-29; read-out: LC50 HT29
  CC50: 3680 nM
HT-29; read-out: TGI HT29
  IC (TGI): 16.2 nM
A-549; read-out: GI50 A549
  GI50: 1.83 nM
A-549; read-out: LC50 A549
  CC50: 92.1 nM
A-549; read-out: TGI A549
  IC (TGI): 5.97 nM
K-562; read-out: GI50 K562
  GI50: 0.226 nM
K-562; read-out: LC50 K562
  CC50: 126 nM
K-562; read-out: TGI K562
  IC (TGI): 0.792 nM
IGROV-1; read-out: GI50 IGROV
  GI50: 0.413 nM
IGROV-1; read-out: LC50 IGROV
  CC50: 12.6 nM
IGROV-1; read-out: TGI IGROV
  IC (TGI): 1.07 nM
IGROV-ET; read-out: GI50 IGROV-ET
  GI50: 2.91 nM
IGROV-ET; read-out: LC50 IGROV-ET
  CC50: 2090 nM
IGROV-ET; read-out: TGI IGROV-ET
  IC (TGI): 7.49 nM
SK-BR-3; read-out: GI50 SK-BR3
  GI50: 0.396 nM
SK-BR-3; read-out: LC50 SK-BR3
  CC50: 60.7 nM
SK-BR-3; read-out: TGI SK-BR3
  IC (TGI): 1.22 nM
LoVo-Dox; read-out: GI50 LOVO-DOX
  GI50: 9.05 nM
LoVo-Dox; read-out: LC50 LOVO-DOX
  CC50: 7210 nM
LoVo-Dox; read-out: TGI LOVO-DOX
  IC (TGI): 1480 nM
HeLa; read-out: GI50 HELA
  GI50: 0.678 nM
HeLa; read-out: LC50 HELA
  CC50: 11.2 nM
HeLa; read-out: TGI HELA
  IC (TGI): 2.04 nM
SK-MEL-28; read-out: GI50 MEL-28
  GI50: 0.832 nM
SK-MEL-28; read-out: LC50 MEL-28
  CC50: 8.06 nM
SK-MEL-28; read-out: TGI MEL-28
  IC (TGI): 2.54 nM
HeLa-APL; read-out: GI50 HELA-APL
  GI50: 0.576 nM
HeLa-APL; read-out: LC50 HELA-APL
  CC50: 9.96 nM
HeLa-APL; read-out: TGI HELA-APL
  IC (TGI): 1.96 nM
PANC-1; read-out: GI50 PANC-1
  GI50: 0.807 nM
PANC-1; read-out: LC50 PANC-1
  CC50: 1770 nM
PANC-1; read-out: TGI PANC-1
  IC (TGI): 6.68 nM
LNCaP; read-out: GI50 LNCAP
  GI50: 0.419 nM
LNCaP; read-out: LC50 LNCAP
  CC50: 90.7 nM
LNCaP; read-out: TGI LNCAP
  IC (TGI): 16.3 nM
DU-145; read-out: GI50 DU145
  GI50: 0.444 nM
DU-145; read-out: LC50 DU145
  CC50: 2230 nM
DU-145; read-out: TGI DU145
  IC (TGI): 0.951 nM

## COc1cc2c(cc1O)CCN[C@]21CS[C@@H]2c3c(OC(=O)/C=C/c4ccccc4)c(C)c4c(c3[C@H](COC1=O)N1C2[C@@H]2N[C@@H](Cc3cc(C)c(OC)c(O)c32)[C@@H]1C#N)OCO4 (stereo partly drawn) [compound 51]
LoVo; read-out: LOVO GI50
  GI50: 3.93 nM
LoVo; read-out: LOVO LC50
  CC50: 11800 nM
LoVo; read-out: LOVO TGI
  IC (TGI): 8.86 nM
HT-29; read-out: HT29 GI50
  GI50: 5.24 nM
HT-29; read-out: HT29 LC50
  CC50: 11.8 nM
HT-29; read-out: HT29 TGI
  IC (TGI): 2370 nM
A-549; read-out: A549 GI50
  GI50: 2.85 nM
A-549; read-out: A549 LC50
  CC50: 542 nM
A-549; read-out: A549 TGI
  IC (TGI): 6.59 nM
K-562; read-out: K562 GI50
  GI50: 3.15 nM
K-562; read-out: K562 LC50
  CC50: 653 nM
K-562; read-out: K562 TGI
  IC (TGI): 7.75 nM
IGROV-1; read-out: IGROV GI50
  GI50: 3.35 nM
IGROV-1; read-out: IGROV LC50
  CC50: 118000 nM
IGROV-1; read-out: IGROV TGI
  IC (TGI): 6.45 nM
IGROV-ET; read-out: IGROV-ET GI50
  GI50: 43.6 nM
IGROV-ET; read-out: IGROV-ET LC50
  CC50: 11800 nM
IGROV-ET; read-out: IGROV-ET TGI
  IC (TGI): 118 nM
SK-BR-3; read-out: SK-BR3 GI50
  GI50: 5.05 nM
SK-BR-3; read-out: SK-BR3 LC50
  CC50: 11800 nM
SK-BR-3; read-out: SK-BR3 TGI
  IC (TGI): 344 nM
LoVo-Dox; read-out: LOVO-DOX GI50
  GI50: 352 nM
LoVo-Dox; read-out: LOVO-DOX LC50
  CC50: 11800 nM
LoVo-Dox; read-out: LOVO-DOX TGI
  IC (TGI): 11800 nM
HeLa; read-out: HELA GI50
  GI50: 3.43 nM
HeLa; read-out: HELA LC50
  CC50: 15.5 nM
HeLa; read-out: HELA TGI
  IC (TGI): 6.63 nM
SK-MEL-28; read-out: MEL-28 GI50
  GI50: 2.71 nM
SK-MEL-28; read-out: MEL-28 LC50
  CC50: 7.94 nM
SK-MEL-28; read-out: MEL-28 TGI
  IC (TGI): 4.64 nM
HeLa-APL; read-out: HELA-APL GI50
  GI50: 3.49 nM
HeLa-APL; read-out: HELA-APL LC50
  CC50: 10.9 nM
HeLa-APL; read-out: HELA-APL TGI
  IC (TGI): 6.18 nM
PANC-1; read-out: PANC-1 GI50
  GI50: 3.53 nM
PANC-1; read-out: PANC-1 LC50
  CC50: 520 nM
PANC-1; read-out: PANC-1 TGI
  IC (TGI): 7.73 nM
LNCaP; read-out: LNCAP GI50
  GI50: 2.31 nM
LNCaP; read-out: LNCAP LC50
  CC50: 6.82 nM
LNCaP; read-out: LNCAP TGI
  IC (TGI): 3.96 nM
DU-145; read-out: DU145 GI50
  GI50: 5.24 nM
DU-145; read-out: DU145 LC50
  CC50: 11800 nM
DU-145; read-out: DU145 TGI
  IC (TGI): 16.3 nM
